In brackets after ≈: the same amount, converted by molar mass.
Tests used:
[1] = system: Mycobacterium tuberculosis; assay: Antibacterial activity against Mycobacterium tuberculosis H37Rv after 7 days by resazurin dye-based assay; format: functional; settings: 168 h
[2] = system: Mycobacterium tuberculosis; assay: Antimycobacterial activity against Mycobacterium tuberculosis H37Rv over expressing InhA after 7 days by resazurin dye-based assay; format: functional; settings: 168 h
[3] = system: Mycobacterium tuberculosis; assay: Antimycobacterial activity against Mycobacterium tuberculosis H37Rv transfected with pMV261 empty vector after 7 days by resazurin dye-based assay; format: functional; settings: 168 h
[4] = Stability in Middlebrook 7H9 medium at 10 ug/ml after 7 days relative to control; format: physicochemical; settings: read-out: Stability

| SMILES | MIC [1] [µM] | MIC [2] [µM] | MIC [3] [µM] | remaining at 168 h, 10 ug/ml [4] [%] |
| --- | --- | --- | --- | --- |
| CC(C)[C@@H]1OC(=O)[C@H](C)[C@H](O)[C@H](Cc2cccnc2)NC(=O)[C@@H](NC(=O)c2ncccc2O)[C@@H](C)OC1=O | 26 (≈ 13.7 µg/mL) | – | – | – |
| C[C@H]1OC(=O)[C@@H](CO)OC(=O)[C@H](C)[C@H](O)[C@H](Cc2cccnc2)NC(=O)[C@H]1NC(=O)c1ncccc1O | 96.8 (≈ 50 µg/mL) | – | – | – |
| CC[C@@H](C)[C@H]1NC(=O)[C@H](C)[C@H](O)[C@H](Cc2cccnc2)NC(=O)[C@@H](NC(=O)c2ncccc2O)[C@@H](C)OC1=O | 185 (≈ 100 µg/mL) | – | – | – |
| CC[C@@H](C)[C@H]1OC(=O)[C@H](C)[C@H](O)[C@H](Cc2cccnc2)NC(=O)[C@@H](NC(=O)c2ncccc2O)[C@@H](C)OC1=O | 1.5 (≈ 0.814 µg/mL) | – | – | – |
| NNC(=O)c1ccncc1 [ISONIAZID] | – | 37.3 (≈ 5.12 µg/mL) | 1.2 (≈ 0.165 µg/mL) | – |
| C[C@H](c1ccccc1)[C@H]1OC(=O)[C@H](C)[C@H](O)[C@H](Cc2cccnc2)NC(=O)[C@@H](NC(=O)c2ncccc2O)[C@@H](C)OC1=O | 2.6 (≈ 1.54 µg/mL) | – | – | – |
| CC/C(C)=C1\OC(=O)[C@H](C)[C@H](O)[C@H](Cc2cccnc2)NC(=O)[C@@H](NC(=O)c2ncccc2O)[C@@H](C)OC1=O [PYRIDOMYCIN] | 0.55 to 3.05 (≈ 0.297 to 1.65 µg/mL) | 11.6 (≈ 6.25 µg/mL) | 0.74 (≈ 0.4 µg/mL) | > 50 |
| CC[C@H]1OC(=O)[C@H](C)[C@H](O)[C@H](Cc2cccnc2)NC(=O)[C@@H](NC(=O)c2ncccc2O)[C@@H](C)OC1=O | 4.9 (≈ 2.52 µg/mL) | > 19.1 | 4.9 (≈ 2.52 µg/mL) | – |
| C[C@H]1OC(=O)[C@H](C)[C@H](O)[C@H](Cc2cccnc2)NC(=O)[C@@H](NC(=O)c2ncccc2O)[C@@H](C)OC1=O | 49.9 (≈ 25 µg/mL) | – | – | – |
| C[C@@H]1C(=O)N[C@H](C2CCCCC2)C(=O)O[C@H](C)[C@H](NC(=O)c2ncccc2O)C(=O)N[C@@H](Cc2cccnc2)[C@@H]1O | 136 (≈ 77.1 µg/mL) | – | – | – |
| C[C@H]1OC(=O)[C@@H]([C@@H](C)c2ccccc2)OC(=O)[C@H](C)[C@H](O)[C@H](Cc2cccnc2)NC(=O)[C@H]1NC(=O)c1ncccc1O | 2.6 (≈ 1.54 µg/mL) | – | – | – |
| C[C@H]1OC(=O)[C@@H](Cc2ccccc2)OC(=O)[C@H](C)[C@H](O)[C@H](Cc2cccnc2)NC(=O)[C@H]1NC(=O)c1ncccc1O | 4.3 (≈ 2.48 µg/mL) | > 17.3 | 4.3 (≈ 2.48 µg/mL) | – |
| CC(C)[C@H]1OC(=O)[C@H](C)[C@H](O)[C@H](Cc2cccnc2)NC(=O)[C@@H](NC(=O)c2ncccc2O)[C@@H](C)OC1=O | 3.2 (≈ 1.69 µg/mL) | 24.2 (≈ 12.8 µg/mL) | 3.1 (≈ 1.64 µg/mL) | – |
| CC(C)[C@H]1NC(=O)[C@@H](C)[C@@H](O)[C@H](Cc2cccnc2)NC(=O)[C@@H](NC(=O)c2ncccc2O)[C@@H](C)OC1=O | 94.6 (≈ 49.9 µg/mL) | – | – | – |
| CC[C@H](C)[C@H]1OC(=O)[C@H](C)[C@H](O)[C@H](Cc2cccnc2)NC(=O)[C@@H](NC(=O)c2ncccc2O)[C@@H](C)OC1=O | 2.9 (≈ 1.57 µg/mL) | 2.9 (≈ 1.57 µg/mL) | 2.9 (≈ 1.57 µg/mL) | – |

Reference: ChEMBL document CHEMBL4376876 (J Med Chem, 2020)
